Data as given in patent US9573954B2, “Pyrazolopyrimidine compounds” (University Health Network, priority 2012, dated 2017).
Like-named read-outs stand apart in the source and are kept apart here.

Assays:
human TTK = target: T1, human TTK (Homo sapiens, UniProt P33981); test: TTK inhibition assay (indirect ELISA); type: biochemical
T1 construct: Active TTK was purchased from Invitrogen as an amino terminal GST fusion of full length human TTK; purchased Invitrogen
T1 sequence (P33981 1-857): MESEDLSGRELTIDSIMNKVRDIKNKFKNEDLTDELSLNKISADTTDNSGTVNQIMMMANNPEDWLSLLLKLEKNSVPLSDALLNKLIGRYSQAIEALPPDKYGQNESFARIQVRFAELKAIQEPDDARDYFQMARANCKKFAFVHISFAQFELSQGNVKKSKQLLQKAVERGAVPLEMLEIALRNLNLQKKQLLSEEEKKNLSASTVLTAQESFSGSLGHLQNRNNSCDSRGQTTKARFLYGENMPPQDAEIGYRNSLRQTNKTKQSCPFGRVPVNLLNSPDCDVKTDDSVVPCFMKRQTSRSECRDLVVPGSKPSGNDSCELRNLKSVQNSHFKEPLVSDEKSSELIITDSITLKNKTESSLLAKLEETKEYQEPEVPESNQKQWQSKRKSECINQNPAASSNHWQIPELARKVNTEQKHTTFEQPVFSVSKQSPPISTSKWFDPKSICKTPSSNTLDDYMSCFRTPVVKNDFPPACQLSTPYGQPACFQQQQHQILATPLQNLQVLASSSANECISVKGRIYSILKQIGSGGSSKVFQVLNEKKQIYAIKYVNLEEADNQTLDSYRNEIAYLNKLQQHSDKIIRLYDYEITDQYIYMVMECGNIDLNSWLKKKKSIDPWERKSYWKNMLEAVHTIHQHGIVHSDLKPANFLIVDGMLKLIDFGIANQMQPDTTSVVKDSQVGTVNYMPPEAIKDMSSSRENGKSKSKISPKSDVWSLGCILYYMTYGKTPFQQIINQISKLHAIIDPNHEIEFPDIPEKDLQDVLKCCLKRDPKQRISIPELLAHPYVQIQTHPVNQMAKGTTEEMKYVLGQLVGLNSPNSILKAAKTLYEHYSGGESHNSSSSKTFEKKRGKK
In short: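 Activity detected by indirect ELISA after compounds sat with full-length GST-TTK for 5 min prior to starting the reaction with ATP. IC50 came from a four-parameter logistic curve of % inhibition, calculated against background and uninhibited control wells.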

[1] = tested on: colon cancer cells (HCT116); test: Cancer cell line growth inhibition, Sulforhodamine B assay, HCT116; type: cell-based; settings: Homo sapiens, HCT-116, HCT116 colon cancer cell line; read-out: Cancer Cell Line GI50 Range HCT116
In short: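 HCT116 cells, 1000–4000 per well, seeded 24 h ahead, then treated 5 days with compound at 10 nM to 50 μM final in DMEM with 10% FBS. Growth measured by sulforhodamine B staining after TCA fixation, A570; GI50 from inhibition relative to DMSO-only cells.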

[2] = tested on: breast cancer cells (MDA-MB-468); test: Cancer cell line growth inhibition, Sulforhodamine B assay, MDA-MB-468; type: cell-based; settings: Homo sapiens, MDA-MB-468, MDA-MB-468 breast cancer cell line; read-out: Cancer Cell Line GI50 Range MDA-MB-468
In short: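 MDA-MB-468 cells exposed 5 days to compound at final 10 nM to 50 μM in DMEM with 10% FBS. Growth measured by sulforhodamine B protein staining after TCA fixation, absorbance 570 nm; inhibition relative to DMSO-only cells, GI50 determined for cytotoxic compounds.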

[3] = tested on: ovarian cancer cells (OVCAR-3); test: Cancer cell line growth inhibition, Sulforhodamine B assay, OVCAR-3; type: cell-based; settings: Homo sapiens, OVCAR-3, OVCAR-3 ovarian cancer cell line; read-out: Cancer Cell Line GI50 Range OVCAR-3
In short: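 OVCAR-3 cells were seeded 24 h before compound addition, then exposed for 5 days to final concentrations of 10 nM to 50 μM in DMEM with 10% FBS. Growth was measured by TCA fixation and sulforhodamine B staining with absorbance at 570 nm. Inhibition was relative to DMSO-only cells, and GI50 came from curve fitting.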

[4] = tested on: Ovarian 2393A tumor initiating cells; test: Tumor-initiating cell growth inhibition, Alamar Blue assay, ovarian TICs; type: cell-based; settings: 144 h; Ovarian 2393A TICs, 6 days; read-out: Tumor Initiating Cell GI50 Range Ovarian 2393A
From the text: (§1) Non-tissue or tissue cultured treated T-75 flask and 96-well plates were purchased from VWR. Vitamin B-27 supplement, MEM NEAA (minimum essential medium non essential amino acids), sodium pyruvate, L-glutamine, N2 supplement, penicillin-streptomycin and fungizone/amphotericin B were obtained from Invitrogen. Lipid mixture, heparin and EGF were purchased from Sigma; bFGF from BD Biosciences. Tumor Initiating Cells (TICs) from colon were routinely maintained using non-tissue cultured treated T-75 flasks in DMEM:F12 medium containing 0.2XB-27 supplement, 4 ug/ml heparin, 1×MEM NEAA, 1×sodium pyruvate, 1 mM glutamine, 10 pg/ul bFGF, 20 pg/ul EGF, 1× N2 supplement, lipid mixture, penicillin-streptomycin and fungizone/amphotericin B. Ovarian TICs were routinely maintained using tissue cultured treated T-75 flasks in DMEM:F12 medium containing IXB-27 supplement, 4 ug/ml heparin, 20 pg/ul bFGF, 20 pg/ul EGF and penicillin-streptomycin.
(§2) Compounds described herein were dissolved in DMSO and further diluted in cell culture medium for GI50 determination. Colon TICs were trypsinized and seeded into non-tissue cultured treated 96-well plates with 4,000 cells/well. After 24 h, compound was added into the cell culture at different concentrations, and the final concentration of DMSO was adjusted to 0.1%. Cells were then cultured at 37° C. for 9 days. Ovarian TICs were trypsinized and seeded into tissue cultured treated 96-well plates with 1,000 cells/well. After 24 h, compound was added into the cell culture at different concentrations, and the final concentration of DMSO was adjusted to 0.1%. Cells were then cultured at 37° C. for 6 days. Cell viability was assessed by Alamar Blue assay: 10 ul of Alamar Blue was added into each well. After 4 hours incubation at 37° C., fluorescence was recorded at excitation 544 and emission 590. GI50 (Growth inhibition) was calculated using GraphPad Prism 4.0 software.
(§3) In Table 1 below, GI50 value ranges for compound examples against TICs (Colon 12 and Ovarian 2393A) are given.

[5] = tested on: Colon 12 tumor initiating cells; test: Tumor-initiating cell growth inhibition, Alamar Blue assay, colon TICs; type: cell-based; settings: 216 h; Colon 12 TICs, 9 days; read-out: Tumor Initiating Cell GI50 Range Colon 12
From the text: as §1, §2, §3

[6] = 16 μM ATP (Sigma cat# A7699), read-out: TTK IC50 Range (denoted with an asterisk)
[7] = 100 μM ATP, read-out: TTK IC50 Range

| SMILES | IC50 (human TTK; [6]) [nM] | GI50 [1] [nM] | GI50 [2] [nM] | GI50 [3] [nM] | GI50 [4] [nM] | GI50 [5] [nM] | IC50 (human TTK; [7]) [nM] |
| --- | --- | --- | --- | --- | --- | --- | --- |
| O=C(NC1CC1)c1ccc(-c2cnn3c(NCC4CCOCC4)nc(Oc4ccccc4)nc23)cc1F [Example C7] | < 100 | > 500 | > 500 | > 500 | 100 to 500 | 100 to 500 | – |
| Cc1cc(-c2cnn3c(NCC4CCOCC4)nc(Oc4ccccc4F)nc23)ccc1C(=O)NC1CC1 [Example C20] | < 100 | ≤ 100 | 100 to 500 | 100 to 500 | 100 to 500 | ≤ 100 | – |
| Cc1cc(-c2cnn3c(NC[C@H]4CC[C@@H](O)CC4)nc(Oc4cccc(F)c4)nc23)ccc1C(=O)NC1CC1 [Example C24] | < 100 | ≤ 100 | ≤ 100 | ≤ 100 | ≤ 100 | ≤ 100 | – |
| COc1ccc(Oc2nc(NCC3CCOCC3)n3ncc(-c4ccc(C(=O)NC5CC5)c(C)c4)c3n2)c(F)c1 [Example C25] | < 100 | ≤ 100 | 100 to 500 | 100 to 500 | 100 to 500 | ≤ 100 | – |
| Cc1cc(-c2cnn3c(NCC4(F)CCN(C)CC4)cc(Oc4cccc(F)c4)nc23)ccc1C(=O)NC1CC1 [Example C28] | – | ≤ 100 | ≤ 100 | ≤ 100 | ≤ 100 | ≤ 100 | < 100 |
| Cc1cc(-c2cnn3c(NCCN4CCOCC4)cc(Oc4cccc(F)c4)nc23)ccc1C(=O)NC1CC1 [Example C31, N-cyclopropyl-4-(5-(3-fluorophenoxy)-7-((2-morpholinoethyl)amino)pyrazolo[1,5-a]pyrimidin-3-yl)-2-methylbenzamide] | – | ≤ 100 | ≤ 100 | ≤ 100 | ≤ 100 | ≤ 100 | < 100 |
| Cc1cc(-c2cnn3c(NCCN4CCOCC4)cc(Oc4cccc(F)c4F)nc23)ccc1C(=O)NC1CC1 [Example C32, N-cyclopropyl-4-(5-(2,3-difluorophenoxy)-7-((2-morpholinoethyl)amino)pyrazolo[1,5-a]pyrimidin-3-yl)-2-methylbenzamide] | – | ≤ 100 | ≤ 100 | ≤ 100 | ≤ 100 | ≤ 100 | < 100 |
| Cc1cc(-c2cnn3c(NCC4CCOCC4)cc(N[C@H](CO)C(C)C)nc23)ccc1C(=O)NC1CC1 [Example C38, (S)-N-cyclopropyl-4-(5-((1-hydroxy-3-methylbutan-2-yl)amino)-7-(((tetrahydro-2H-pyran-4-yl)methyl)amino)pyrazolo[1,5-a]pyrimidin-3-yl)-2-methylbenzamide] | – | ≤ 100 | ≤ 100 | ≤ 100 | ≤ 100 | ≤ 100 | < 100 |
| Cc1cc(-c2cnn3c(NCC4(F)CCNCC4)cc(OC4CCCC4)nc23)ccc1C(=O)NC1CC1 [Example C173] | – | 100 to 500 | > 500 | > 500 | – | – | < 100 |
| Cc1cc(-c2cnn3c(NCCN4CCN(C)CC4)cc(Oc4cccc(F)c4)nc23)ccc1C(=O)NC1CC1 [Example C178] | – | ≤ 100 | ≤ 100 | 100 to 500 | – | – | < 100 |
| Cc1cc(-c2cnn3c(NC[C@H]4CC[C@@H](O)CC4)cc(NC4CCOCC4)nc23)ccc1C(=O)NC1CC1 [Example C179] | – | ≤ 100 | ≤ 100 | ≤ 100 | – | – | < 100 |
| Cc1cc(-c2cnn3c(NCCN4CCC(O)CC4)cc(N[C@H]4CCCC[C@H]4O)nc23)ccc1C(=O)NC1CC1 [Example C183] | – | > 500 | 100 to 500 | > 500 | – | – | < 100 |
| Cc1cc(-c2cnn3c(NC[C@H]4C[C@](C)(O)C4)cc(NC4CCCC4)nc23)ccc1C(=O)NC1CC1 [Example C186] | – | ≤ 100 | 100 to 500 | 100 to 500 | – | – | < 100 |

Other lines, results leading:

| IC50 (human TTK; [6]) [nM] | GI50 [1] [nM] | GI50 [2] [nM] | GI50 [3] [nM] | GI50 [4] [nM] | GI50 [5] [nM] | IC50 (human TTK; [7]) [nM] | SMILES |
| --- | --- | --- | --- | --- | --- | --- | --- |
| < 100 | > 500 | > 500 | > 500 | > 500 | > 500 | – | Cc1cc(-c2cnn3c(NCC4CCOCC4)nc(Nc4ccccc4)nc23)ccc1C(=O)NC1CC1 [Example C10] |
| < 100 | ≤ 100 | ≤ 100 | ≤ 100 | ≤ 100 | ≤ 100 | – | Cc1cc(-c2cnn3c(NCC4CCOCC4)nc(Oc4cccc(F)c4)nc23)ccc1C(=O)NC1CC1 [Example C21] |
| < 100 | ≤ 100 | 100 to 500 | 100 to 500 | ≤ 100 | ≤ 100 | – | Cc1cc(-c2cnn3c(NCCN4CCOCC4)nc(Oc4cccc(F)c4F)nc23)ccc1C(=O)NC1CC1 [Example C26] |
| – | ≤ 100 | ≤ 100 | ≤ 100 | ≤ 100 | ≤ 100 | < 100 | Cc1cc(-c2cnn3c(NCC4COC4)cc(N[C@H]4CCCC[C@H]4O)nc23)ccc1C(=O)NC1CC1 [Example C37, N-cyclopropyl-4-(5-(((1S,2R)-2-hydroxycyclohexyl)amino)-7-((oxetan-3-ylmethyl)amino)pyrazolo[1,5-a]pyrimidin-3-yl)-2-methylbenzamide] |
| – | 100 to 500 | > 500 | > 500 | – | – | < 100 | Cc1cc(-c2cnn3c(NCC4(F)CCN(C)CC4)cc(OC4CCCC4)nc23)ccc1C(=O)NC1CC1 [Example C174] |
| – | ≤ 100 | 100 to 500 | 100 to 500 | – | – | < 100 | Cc1cc(-c2cnn3c(NCCN4CCCCC4)cc(Oc4cccc(F)c4)nc23)ccc1C(=O)NC1CC1 [Example C180] |
| – | ≤ 100 | 100 to 500 | 100 to 500 | – | – | < 100 | Cc1cc(-c2cnn3c(NCCN4CCOCC4)cc(Oc4ccc(F)cc4)nc23)ccc1C(=O)NC1CC1 [Example C181] |
